From patent publication US9642874B2, “Compositions of selenoorganic compounds and methods of use thereof” (Alltech, Inc., priority 2014, dated 2017) come the findings set out here.

For one assay, the system named is Igf1r. Nature of the assay: Igf1r mRNA expression (QRT-PCR) in AML-12 cells. It is filed as cell-based, mouse. The settings on record: insulin alone, 6 hours, without 8-CPT/Dex. The method, then:
For RNA analysis of insulin receptor (Insr), insulin like growth factor receptor (Igf1r), and Glucose-6-Phosphatase (G6pc), AML-12 cells were amplified in ITS, Dex and FBS-containing DMEM/F12 media, and cultured on 24-well (6.7×10^4 cells/well) plates in 10% FBS ITS-free DMEM/F12 media with or without Dex overnight. These cells were treated with control (water) or various compounds (diluted in 10% FBS ITS-free DMEM/F12 media with or without Dex) for 6 hours, 24 hours, or 48 hours.
In some experiments, the AML-12 cells were washed twice with PBS after the compound treatments for 24 hours, and then incubated with selenium compounds (150 or 300 ppb of each compound) in the presence or absence of insulin (10 or 100 nM), 0.1 mM 8-CPT (Sigma), or 0.5 μM Dex in serum-free, glucose/phenol red-free DMEM media supplemented with 20 mM lactose and 2 mM pyruvate, and 15 mM HEPES (glucose-production media) for another 6 hours. After treatments, cell media were collected and subjected to glucose assays using Abcam glucose assay kit according to the manufacturer's protocol. […]
Total RNA from these cells was isolated using Trizol (Invitrogen) according to the manufacturer's protocol, and then incubated with DNase I to remove any potential contaminated genomic DNA. […] Three to six samples were analyzed in each treatment group. […]

In a further assay the test system is Foxo3. Nature of the assay: Western blot of pFoxo3T32 in primary mouse hepatocytes. Type of assay: cell-based. Conditions: 100 nM insulin 6 hours, or Compounds CDE both doses 24 hours + 6 hours. The method, then: The overnight-acclimated hepatocytes were washed twice with PBS (to remove any residual FBS and other additives in the TRL hepatocyte maintenance medium, pretreated with control (water) or selenium Compounds CDE (150 or 300 ppb of each selenium compound) in DMEM/F12 media supplemented with 10% fetal bovine serum (FBS) for 24 hr. These cells were then washed twice with PBS and incubated with the same dose of selenium Compounds CDE (150 or 300 ppb) in the presence or absence of insulin (10 or 100 nM, Sigma), 0.1 mM 8-CPT (Sigma) or 0.5 μM Dex (Sigma) in serum-free and glucose-free DMEM media (Invitrogen) supplemented with 20 mM lactose (Sigma) and 2 mM pyruvate (Sigma) and 15 mM HEPES (Sigma) for another 6 hours. […]
After the above described treatments, primary mouse hepatocytes were rinsed with ice-cold PBS and lysed in the ice-cold RIPA buffer containing complete proteinase and phosphatase inhibitors (Thermo-Fisher Scientific, Waltham, Mass.) on ice for 30 min Cell lysates were collected using a cell scraper and transfer pipette and then centrifuged at 12000×g for 30 min at 4° C. to remove the DNA pellet and obtain the protein extract. Protein levels in the supernatant of these cell lysates were determined using the Pierce Micro-BCA protein assay kit (Thermo Scientific-Piece Biotechnology, Rockford, Ill.) according to the manufacturer's protocol. […]
(In general: A western blot detects proteins with antibodies after separation by electrophoresis.)

Consider “insulin: insulin (10 or 100 nM, Sigma) used as comparator and cotreatment”, for which the Igf1r expression result in the assay on Igf1r was “did not increase”. The “pFoxo3T32 protein level (in words)” value in the assay on Foxo3 is “significant increase”.
